According to ChEMBL document CHEMBL1201862, “PubChem BioAssay data set” (2004):
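Cells were grown in 96-well plates and exposed to each compound for 48 hours at five concentrations; endpoints were interpolated linearly between bracketing concentrations, or set to the highest concentration if not reached. The concentration for 50% growth inhibition is given as GI50.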 The source made the active and inactive calls. Cut-off read from the data, not from the text of the source: active = GI50 up to about 1.1 µM and inactive = higher.

How the values were obtained:
Experiment in all cases: inhibition of tumour cell growth, NCI panel, 48 h
[1] = test system: 786-0
[2] = test system: IGROV-1
[3] = test system: RPMI-8226
[4] = test system: Malme-3M
[5] = test system: KM-20L2
[6] = test system: HT-29
[7] = test system: CCRF-CEM
[8] = test system: M14
[9] = test system: NCI-H460
[10] = test system: SF-539
[11] = test system: SK-MEL-5
[12] = test system: UACC-62
[13] = test system: SK-OV-3
[14] = test system: A549
[15] = test system: HOP-62
[16] = test system: SNB-19

Measured: GI50

S=c1sc2c(n1-c1ccccc1)N=CNC2S (stereo not given)
inactive: [1] > 100 µM | [2] > 100 µM | [3] 62.2 µM | [4] 44.8 µM | [5] > 100 µM | [6] > 100 µM | [7] 46.2 µM | [8] > 100 µM | [9] > 100 µM | [10] 65.3 µM | [11] 57 µM | [12] 43.7 µM | [13] > 100 µM | [14] 65.9 µM | [15] 41.3 µM | [16] 73.1 µM

CSc1cnc2ccccc2c1Sc1c[nH]c2ccccc2c1=O
inactive: [1] 15.3 µM | [2] 14.4 µM | [3] 6.65 µM | [4] 6.55 µM | [5] 4.42 µM | [6] 3.72 µM | [7] 4.52 µM | [8] 6.76 µM | [9] 6.75 µM | [10] 11.5 µM | [11] 6.25 µM | [12] 4.03 µM | [13] 3.51 µM | [14] 5.51 µM | [15] 12.2 µM | [16] 20 µM

N#Cc1c(NN)nc(NN)c(C#N)c1-c1ccccc1
inactive: [1] > 100 µM | [2] > 100 µM | [3] > 100 µM | [4] > 100 µM | [5] > 100 µM | [6] > 100 µM | [7] > 100 µM | [8] > 100 µM | [9] > 100 µM | [10] > 100 µM | [11] > 100 µM | [12] > 100 µM | [13] > 100 µM | [14] > 100 µM | [15] > 100 µM | [16] > 100 µM

CCC(=O)c1cn(C)c(=O)c2ccccc12
inactive: [1] > 100 µM | [2] > 100 µM | [3] > 100 µM | [4] > 100 µM | [5] > 100 µM | [6] > 100 µM | [7] > 100 µM | [8] > 100 µM | [9] > 100 µM | [10] > 100 µM | [11] > 100 µM | [12] > 100 µM | [13] > 100 µM | [14] > 100 µM | [15] > 100 µM | [16] > 100 µM

c1ccc2cc(-c3cc4ccccc4s3)ccc2c1
inactive: [1] > 100 µM | [2] > 100 µM | [3] > 100 µM | [4] > 100 µM | [5] > 100 µM | [6] > 100 µM | [7] > 100 µM | [8] > 100 µM | [9] > 100 µM | [10] > 100 µM | [11] > 100 µM | [12] > 100 µM | [13] 22.1 µM | [14] > 100 µM | [15] > 100 µM | [16] > 100 µM
